The record followed here is patent publication US12404241B2 (Celgene Corporation, priority 2018, dated 2025).

The target in the assay is T1, AR (Homo sapiens, UniProt P10275).
T1 construct: endogenous in cells; host or cells: VCaP cells
T1 sequence (P10275 1-920): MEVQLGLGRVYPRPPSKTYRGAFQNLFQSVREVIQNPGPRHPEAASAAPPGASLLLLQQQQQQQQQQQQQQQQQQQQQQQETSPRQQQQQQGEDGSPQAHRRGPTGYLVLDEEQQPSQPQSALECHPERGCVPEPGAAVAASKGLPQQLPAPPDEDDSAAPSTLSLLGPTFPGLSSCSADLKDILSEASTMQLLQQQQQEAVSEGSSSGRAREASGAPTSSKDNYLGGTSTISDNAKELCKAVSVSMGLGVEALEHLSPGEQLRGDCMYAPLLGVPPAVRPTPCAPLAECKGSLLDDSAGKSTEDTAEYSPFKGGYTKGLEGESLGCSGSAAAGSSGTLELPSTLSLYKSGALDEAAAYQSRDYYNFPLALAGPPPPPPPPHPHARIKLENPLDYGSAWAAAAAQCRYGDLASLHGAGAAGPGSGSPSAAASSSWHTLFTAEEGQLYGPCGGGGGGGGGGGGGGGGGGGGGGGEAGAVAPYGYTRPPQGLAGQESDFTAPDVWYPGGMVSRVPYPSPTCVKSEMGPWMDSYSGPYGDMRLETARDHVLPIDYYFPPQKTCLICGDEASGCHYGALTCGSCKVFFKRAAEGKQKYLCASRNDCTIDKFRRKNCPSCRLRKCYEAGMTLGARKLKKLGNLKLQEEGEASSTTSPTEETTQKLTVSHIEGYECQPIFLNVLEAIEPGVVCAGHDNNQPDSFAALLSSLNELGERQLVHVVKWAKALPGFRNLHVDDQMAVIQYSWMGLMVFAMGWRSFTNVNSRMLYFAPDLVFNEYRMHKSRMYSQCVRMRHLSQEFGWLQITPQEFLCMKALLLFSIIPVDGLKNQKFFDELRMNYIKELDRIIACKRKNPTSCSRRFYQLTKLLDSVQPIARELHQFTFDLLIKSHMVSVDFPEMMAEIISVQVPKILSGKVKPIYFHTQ
In words: VCAP AR Degradation Assay. Format: cell-based. As to conditions: for Y (AR degradation efficiency, % of DMSO control): class symbols *; for DC50: class symbols A-C, read-out: DC50. An outline of the steps: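 Compounds were plated as 10-point 1:3 series reaching 5 μM final, then VCaP cells were seeded onto them and incubated 24 h at 37 °C. Cells were lysed cold, and total AR was measured by sandwich ELISA relative to 0.1% DMSO wells.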

In general, DC50 refers to the midpoint of the concentration-degradation curve. Take `C[C@@H]1CN(CCOc2ccc(N3C(=S)N(c4ccc(C#N)c(Cl)c4)C(=O)C3(C)C)cc2C2CC2)C[C@H](C)N1CC(=O)Nc1cc(F)cc(NC2CCC(=O)NC2=O)c1` (stereo partly drawn) [Example 226, 2-((2S,6R)-4-(2-(4-(3-(3-chloro-4-cyanophenyl)-5,5-dimethyl-4-oxo-2-thioxoimidazolidin-1-yl)-2-cyclopropylphenoxy)ethyl)-2,6-dimethylpiperazin-1-yl)-N-(3-(2,6-dioxopiperidin-3-ylamino)-5-fluorophenyl)acetamide]: the “Y (AR degradation efficiency, % of DMSO control)” value is listed as “* (0<Y<=25%)” and the DC50 was below 100 nM.

Take `CC(C)c1cc(N2C(=S)N(c3ccc(C#N)c(C(F)(F)F)c3)C(=O)C23CCC3)cnc1OCCN1C[C@@H](C)N(CC(=O)Nc2cccc(NC3CCC(=O)NC3=O)c2)[C@@H](C)C1` (stereo partly drawn) [Example 227, 2-((2S,6R)-4-(2-(5-(7-(4-cyano-3-(trifluoromethyl)phenyl)-8-oxo-6-thioxo-5,7-diazaspiro[3.4]octan-5-yl)-3-isopropylpyridin-2-yloxy)ethyl)-2,6-dimethylpiperazin-1-yl)-N-(3-(2,6-dioxopiperidin-3-ylamino)phenyl)acetamide]: the “Y (AR degradation efficiency, % of DMSO control)” value is on record as “* (0<Y<=25%)” and the DC50 is below 100 nM.

On to `C[C@@H]1CN(CCOc2ncc(N3C(=S)N(c4ccc(C#N)c(C(F)(F)F)c4)C(=O)C3(C)C)cc2C2CC2)C[C@H](C)N1CC(=O)Nc1cccc(NC2CCC(=O)NC2=O)c1` (stereo partly drawn) [Example 228, 2-((2S,6R)-4-(2-(5-(3-(4-cyano-3-(trifluoromethyl)phenyl)-5,5-dimethyl-4-oxo-2-thioxoimidazolidin-1-yl)-3-cyclopropylpyridin-2-yloxy)ethyl)-2,6-dimethylpiperazin-1-yl)-N-(3-(2,6-dioxopiperidin-3-ylamino)phenyl)acetamide], for which the “Y (AR degradation efficiency, % of DMSO control)” value is reported as “* (0<Y<=25%)” and the DC50 is below 100 nM.

Take `C[C@@H]1CN(CCOc2ncc(N3C(=S)N(c4ccc(C#N)c(C(F)(F)F)c4)C(=O)C34CCC4)cc2C2CC2)C[C@H](C)N1CC(=O)Nc1cccc(NC2CCC(=O)NC2=O)c1` (stereo partly drawn) [Example 229, 2-((2S,6R)-4-(2-(5-(7-(4-cyano-3-(trifluoromethyl)phenyl)-8-oxo-6-thioxo-5,7-diazaspiro[3.4]octan-5-yl)-3-cyclopropylpyridin-2-yloxy)ethyl)-2,6-dimethylpiperazin-1-yl)-N-(3-(2,6-dioxopiperidin-3-ylamino)phenyl)acetamide]: the “Y (AR degradation efficiency, % of DMSO control)” value was “* (0<Y<=25%)” and the 50% degradation concentration (DC50) was below 100 nM.

Regarding `CC(C)c1cc(N2C(=S)N(c3ccc(C#N)c(C(F)(F)F)c3)C(=O)C2(C)C)cnc1OCCN1C[C@@H](C)N(CC(=O)Nc2cccc(NC3CCC(=O)NC3=O)c2)C[C@H]1C` (stereo partly drawn) [Example 230, 2-((2R,5R)-4-(2-(5-(3-(4-cyano-3-(trifluoromethyl)phenyl)-5,5-dimethyl-4-oxo-2-thioxoimidazolidin-1-yl)-3-isopropylpyridin-2-yloxy)ethyl)-2,5-dimethylpiperazin-1-yl)-N-(3-(2,6-dioxopiperidin-3-ylamino)phenyl)acetamide], the “Y (AR degradation efficiency, % of DMSO control)” value is on record as “*** (35%<Y<50%)” and the 50% degradation concentration (DC50) fell in the range of 500 to 1000 nM.

In the case of `CC(C)c1cc(N2C(=S)N(c3ccc(C#N)c(C(F)(F)F)c3)C(=O)C23CCC3)cnc1OCCN1C[C@@H](C)N(CC(=O)Nc2cc(C#N)cc(NC3CCC(=O)NC3=O)c2)C[C@H]1C` (stereo partly drawn) [Example 231, 2-((2R,5R)-4-(2-(5-(7-(4-cyano-3-(trifluoromethyl)phenyl)-8-oxo-6-thioxo-5,7-diazaspiro[3.4]octan-5-yl)-3-isopropylpyridin-2-yloxy)ethyl)-2,5-dimethylpiperazin-1-yl)-N-(3-cyano-5-(2,6-dioxopiperidin-3-ylamino)phenyl)acetamide], the “Y (AR degradation efficiency, % of DMSO control)” value is “* (0<Y<=25%)” and the 50% degradation concentration (DC50) lay within 100 to 500 nM.

Consider `CC(C)c1cc(N2C(=S)N(c3ccc(C#N)c(C(F)(F)F)c3)C(=O)C2(C)C)cnc1OCCN1C[C@@H](C)N(CC(=O)Nc2cc(C#N)cc(NC3CCC(=O)NC3=O)c2)C[C@H]1C` (stereo partly drawn) [Example 232, 2-((2R,5R)-4-(2-(5-(3-(4-cyano-3-(trifluoromethyl)phenyl)-5,5-dimethyl-4-oxo-2-thioxoimidazolidin-1-yl)-3-isopropylpyridin-2-yloxy)ethyl)-2,5-dimethylpiperazin-1-yl)-N-(3-cyano-5-(2,6-dioxopiperidin-3-ylamino)phenyl)acetamide], for which the “Y (AR degradation efficiency, % of DMSO control)” value is “* (0<Y<=25%)” and the DC50 lay in the range of 100 to 500 nM.

As to `CC1(C)C(=O)N(c2cnc(C#N)c(C(F)(F)F)c2)C(=S)N1c1ccc(OCCN2CCN(CC(=O)Nc3cccc(NC4CCC(=O)NC4=O)c3)[C@H](C(F)(F)F)C2)c(C2CC2)c1` (stereo partly drawn) [Example 233, 2-((S)-4-(2-(4-(3-(6-cyano-5-(trifluoromethyl)pyridin-3-yl)-5,5-dimethyl-4-oxo-2-thioxoimidazolidin-1-yl)-2-cyclopropylphenoxy)ethyl)-2-(trifluoromethyl)piperazin-1-yl)-N-(3-(2,6-dioxopiperidin-3-ylamino)phenyl)acetamide], the “Y (AR degradation efficiency, % of DMSO control)” value is on record as “* (0<Y<=25%)” and the DC50 was below 100 nM.

As for `C[C@@H]1CN(CC(=O)Nc2cccc(NC3CCC(=O)NC3=O)c2)[C@H](C)CN1CCOc1ccc(N2C(=S)N(c3cnc(C#N)c(C(F)(F)F)c3)C(=O)C2(C)C)cc1C1CC1` (stereo partly drawn) [Example 234, 2-((2R,5R)-4-(2-(4-(3-(6-cyano-5-(trifluoromethyl)pyridin-3-yl)-5,5-dimethyl-4-oxo-2-thioxoimidazolidin-1-yl)-2-cyclopropylphenoxy)ethyl)-2,5-dimethylpiperazin-1-yl)-N-(3-(2,6-dioxopiperidin-3-ylamino)phenyl)acetamide], the “Y (AR degradation efficiency, % of DMSO control)” value is given as “* (0<Y<=25%)” and the DC50 is below 100 nM.

Turning to `C[C@@H]1CN(CCOc2ccc(N3C(=S)N(c4cnc(C#N)c(C(F)(F)F)c4)C(=O)C3(C)C)cc2C2CC2)C[C@H](C)N1CC(=O)Nc1cccc(NC2CCC(=O)NC2=O)c1` (stereo partly drawn) [Example 235, 2-((2S,6R)-4-(2-(4-(3-(6-cyano-5-(trifluoromethyl)pyridin-3-yl)-5,5-dimethyl-4-oxo-2-thioxoimidazolidin-1-yl)-2-cyclopropylphenoxy)ethyl)-2,6-dimethylpiperazin-1-yl)-N-(3-(2,6-dioxopiperidin-3-ylamino)phenyl)acetamide], the “Y (AR degradation efficiency, % of DMSO control)” value is on record as “* (0<Y<=25%)” and the DC50 is below 100 nM.

Turning to `CC1(C)C(=O)N(c2ccc(C#N)c(C(F)(F)F)c2)C(=S)N1c1ccc(OCCN2CC3CCC(C2)N3CC(=O)Nc2cccc(NC3CCC(=O)NC3=O)c2)c(C2CC2)c1` (centres unmarked) [Example 238, 2-(3-(2-(4-(3-(4-cyano-3-(trifluoromethyl)phenyl)-5,5-dimethyl-4-oxo-2-thioxoimidazolidin-1-yl)-2-cyclopropylphenoxy)ethyl)-3,8-diazabicyclo[3.2.1]octan-8-yl)-N-(3-(2,6-dioxopiperidin-3-ylamino)phenyl)acetamide], the “Y (AR degradation efficiency, % of DMSO control)” value is reported as “* (0<Y<=25%)” and the DC50 is 500 to 1000 nM.

Regarding `C[C@@H]1CN(CC(=O)Nc2cc(C#N)cc(NC3CCC(=O)NC3=O)c2)[C@H](C)CN1CCOc1ccc(N2C(=S)N(c3cnc(C#N)c(C(F)(F)F)c3)C(=O)C2(C)C)cc1C(C)(F)F` (stereo partly drawn) [Example 243, N-(3-cyano-5-(2,6-dioxopiperidin-3-ylamino)phenyl)-2-((2R,5R)-4-(2-(4-(3-(6-cyano-5-(trifluoromethyl)pyridin-3-yl)-5,5-dimethyl-4-oxo-2-thioxoimidazolidin-1-yl)-2-(1,1-difluoroethyl)phenoxy)ethyl)-2,5-dimethylpiperazin-1-yl)acetamide], the “Y (AR degradation efficiency, % of DMSO control)” value is on record as “* (0<Y<=25%)” and the 50% degradation concentration (DC50) is below 100 nM.

As for `C[C@@H]1CN(CC(=O)Nc2cccc(NC3CCC(=O)NC3=O)c2)[C@H](C)CN1CCOc1ccc(N2C(=S)N(c3cnc(C#N)c(C(F)(F)F)c3)C(=O)C2(C)C)cc1C(C)(F)F` (stereo partly drawn) [Example 244, 2-((2R,5R)-4-(2-(4-(3-(6-cyano-5-(trifluoromethyl)pyridin-3-yl)-5,5-dimethyl-4-oxo-2-thioxoimidazolidin-1-yl)-2-(1,1-difluoroethyl)phenoxy)ethyl)-2,5-dimethylpiperazin-1-yl)-N-(3-(2,6-dioxopiperidin-3-ylamino)phenyl)acetamide], the “Y (AR degradation efficiency, % of DMSO control)” value is given as “* (0<Y<=25%)” and the DC50 was below 100 nM.
